According to US11524938B2, “Aromatic sulfonamide derivatives” (Bayer Pharma Aktiengesellschaft, priority 2016, dated 2022):

Molecular target: T1, human P2X4 (Homo sapiens, UniProt Q99571)
T1 sequence (Q99571 1-388): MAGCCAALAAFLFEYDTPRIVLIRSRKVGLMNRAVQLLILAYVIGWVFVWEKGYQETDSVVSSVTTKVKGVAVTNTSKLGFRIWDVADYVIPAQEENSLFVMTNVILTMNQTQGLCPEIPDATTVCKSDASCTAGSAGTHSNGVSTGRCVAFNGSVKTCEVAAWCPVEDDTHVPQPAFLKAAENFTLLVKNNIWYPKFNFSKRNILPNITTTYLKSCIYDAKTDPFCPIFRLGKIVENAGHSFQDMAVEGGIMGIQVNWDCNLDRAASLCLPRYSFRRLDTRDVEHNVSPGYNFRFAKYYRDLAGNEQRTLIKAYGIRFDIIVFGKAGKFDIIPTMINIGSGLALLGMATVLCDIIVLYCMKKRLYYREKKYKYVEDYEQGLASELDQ
Assay: Human P2X4 HEK Cell FLIPR Assay
Type: cell-based
Conditions: agonist Bz-ATP at EC80; for Emax: HEK293, HEK293 cells, percentage of maximal inhibition, read-out: Human P2X4 HEK Cells (FLIPR Assay) avg Efficacy [%]; for IC50: HEK293 cells, individual values listed where some fall outside detection range
Method in brief: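 HEK293 cells stably expressing human P2X4, Fluo8-AM loaded 30 min at 37° C, then compound 30 min at room temperature (0.5% DMSO, pH 7.4 buffer with 1.8 mM CaCl2). Bz-ATP at its daily-determined EC80 added; calcium fluorescence read over 120 sec; IC50 from peak RFU normalized to agonist control, triplicates.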

Emax	IC50	SMILES
101%	45 nM	NS(=O)(=O)c1cc(NC(=O)Cc2ccccc2Cl)ccc1-n1cc(NCC(F)(F)F)cn1 [Example 515, 2-(2-Chlorophenyl)-N-(3-sulfamoyl-4-{4-[(2,2,2-trifluoroethyl)amino]-1H-pyrazol-1-yl}phenyl)acetamide]
84%	247 nM	NS(=O)(=O)c1cc(NC(=O)Cc2c(F)cc(F)cc2Cl)ccc1-n1cc(C(F)(F)F)cn1 [Example 143, 2-(2-Chloro-4,6-difluorophenyl)-N-{3-sulfamoyl-4-[4-(trifluoromethyl)-1H-pyrazol-1-yl]phenyl}acetamide]
87%	6 nM	CC(C)OCCn1cc(-c2ccc(NC(=O)Cc3ccccc3Cl)cc2S(N)(=O)=O)cn1 [Example 286, 2-(2-Chlorophenyl)-N-(4-{1-[2-(propan-2-yloxy)ethyl]-1H-pyrazol-4-yl}-3-sulfamoylphenyl)acetamide]
85%	1080 nM	NS(=O)(=O)c1cc(NC(=O)Cc2ccc(C(F)F)cc2)ccc1-c1cncc(C(F)(F)F)c1 [Example 458, 2-[4-(Difluoromethyl)phenyl]-N-{3-sulfamoyl-4-[5-(trifluoromethyl)pyridin-3-yl]phenyl}acetamide]
93%	131 nM	Nc1cnn(-c2ccc(NC(=O)Cc3ccccc3Cl)cc2S(N)(=O)=O)c1 [Example 505]
90%	2240 nM	CC(C(=O)Nc1ccc(-n2cc(F)cn2)c(S(N)(=O)=O)c1)c1c(F)cccc1F (stereo not drawn) [Example 171, 2-(2,6-Difluorophenyl)-N-[4-(4-fluoro-1H-pyrazol-1-yl)-3-sulfamoylphenyl]-propanamide]
91%	15 nM	NS(=O)(=O)c1cc(NC(=O)Cc2ccccc2Cl)ccc1-c1cncs1 [Example 418, 2-(2-Chlorophenyl)-N-[3-sulfamoyl-4-(1,3-thiazol-5-yl)phenyl]acetamide]
98%	2 nM	NS(=O)(=O)c1cc(NC(=O)Cc2ccccc2Cl)ccc1-c1cnn(CC2CC2)c1 [Example 267, 2-(2-Chlorophenyl)-N-{4-[1-(cyclopropylmethyl)-1H-pyrazol-4-yl]-3-sulfamoyl-phenyl}acetamide]
80%	93 nM	CC(C)c1ncn(-c2ccc(NC(=O)Cc3ccccc3Cl)cc2S(N)(=O)=O)n1 [Example 233, 2-(2-Chlorophenyl)-N-[4-(3-isopropyl-1H-1,2,4-triazol-1-yl)-3-sulfamoylphenyl]-acetamide]
110%	141 nM	COCCn1cc(-c2ccc(NC(=O)Cc3ccccc3F)cc2S(N)(=O)=O)cn1 [Example 369, 2-(2-Fluorophenyl)-N-{4-[1-(2-methoxyethyl)-1H-pyrazol-4-yl]-3-sulfamoylphenyl}acetamide]
89%	167 nM	NS(=O)(=O)c1cc(NC(=O)Cc2ccccc2Cl)ccc1-c1cnn(C2COC2)c1 [Example 373, 2-(2-Chlorophenyl)-N-{4-[1-(oxetan-3-yl)-1H-pyrazol-4-yl]-3-sulfamoylphenyl}-acetamide]
97%	30 nM	NS(=O)(=O)c1cc(NC(=O)Cc2ccccc2Cl)ccc1-n1cc(NCC(F)F)cn1 [Example 258, 2-(2-Chlorophenyl)-N-(4-{4-[(2,2-difluoroethyl)amino]-1H-pyrazol-1-yl}-3-sulfamoyl-phenyl)acetamide]
81%	111 nM	NS(=O)(=O)c1cc(NC(=O)Cc2ccccc2Cl)ccc1-c1noc(C(F)(F)F)n1 [Example 261, 2-(2-Chlorophenyl)-N-{3-sulfamoyl-4-[5-(trifluoromethyl)-1,2,4-oxadiazol-3-yl]phenyl}acetamide]
86%	73 nM	NS(=O)(=O)c1cc(NC(=O)Cc2ccccc2Cl)ccc1-n1ncc2ccccc21 [Example 395, 2-(2-Chlorophenyl)-N-[4-(1H-indazol-1-yl)-3-sulfamoylphenyl]acetamide]
57%	27 nM	N#Cc1csc(-c2ccc(NC(=O)Cc3ccccc3Cl)cc2S(N)(=O)=O)n1 [Example 428, 2-(2-Chlorophenyl)-N-[4-(4-cyano-1,3-thiazol-2-yl)-3-sulfamoylphenyl]acetamide]
26%	> 25000 nM	Cc1cn(-c2ccc(NC(=O)Cc3ccccc3Cl)cc2S(N)(=O)=O)nc1C(F)(F)F [Example 14, 2-(2-Chlorophenyl)-N-{4-[4-methyl-3-(trifluoromethyl)-1H-pyrazol-1-yl]-3-sulfamoylphenyl}acetamide]
101%	60 nM	NS(=O)(=O)c1cc(NC(=O)Cc2ccccc2Cl)ccc1-c1cnn(C2CCC2)c1 [Example 280, 2-(2-Chlorophenyl)-N-[4-(1-cyclobutyl-1H-pyrazol-4-yl)-3-sulfamoylphenyl]acetamide]

Emax	IC50	SMILES
83%	2880 nM	NS(=O)(=O)c1cc(NC(=O)Cc2ccccc2Cl)ccc1-c1csc(C2CC2)n1 [Example 431, 2-(2-Chlorophenyl)-N-[4-(2-cyclopropyl-1,3-thiazol-4-yl)-3-sulfamoylphenyl]acetamide]
73%	175 nM	NS(=O)(=O)c1cc(NC(=O)Cc2ccccc2Cl)ccc1-n1cc(-c2ccncn2)cn1 [Example 404, 2-(2-Chlorophenyl)-N-{4-[4-(pyrimidin-4-yl)-1H-pyrazol-1-yl]-3-sulfamoylphenyl}acetamide]
97%	19 nM	NS(=O)(=O)c1cc(NC(=O)Cc2ccccc2Cl)ccc1-c1ccc(Cl)nc1 [Example 274, 2-(2-Chlorophenyl)-N-[4-(6-chloropyridin-3-yl)-3-sulfamoylphenyl]acetamide]
34%	> 25000 nM	NS(=O)(=O)c1cc(NC(=O)Cc2ccc(Cl)cc2)ccc1-n1cc(Cl)cn1 [Example 76, 2-(4-Chlorophenyl)-N-[4-(4-chloro-1H-pyrazol-1-yl)-3-sulfamoylphenyl]acetamide]
79%	105 nM	Cc1ccc(CC(=O)Nc2ccc(-n3cc(F)cn3)c(S(N)(=O)=O)c2)cc1 [Example 152, N-[4-(4-Fluoro-1H-pyrazol-1-yl)-3-sulfamoylphenyl]-2-(4-methylphenyl)acetamide]
92%	143 nM	NS(=O)(=O)c1cc(NC(=O)Cc2ccccc2OC(F)(F)F)ccc1-n1cc(Cl)cn1 [Example 92, N-[4-(4-Chloro-1H-pyrazol-1-yl)-3-sulfamoylphenyl]-2-[2-(trifluoromethoxy)-phenyl]acetamide]
96%	79 nM	NS(=O)(=O)c1cc(NC(=O)Cc2c(Cl)cccc2Cl)ccc1-n1cc(Cl)cn1 [Example 80, N-[4-(4-Chloro-1H-pyrazol-1-yl)-3-sulfamoylphenyl]-2-(2,6-dichlorophenyl)acetamide]
90%	224 nM	CCc1ncn(-c2ccc(NC(=O)Cc3ccccc3Cl)cc2S(N)(=O)=O)n1 [Example 35, 2-(2-Chlorophenyl)-N-[4-(3-ethyl-1H-1,2,4-triazol-1-yl)-3-sulfamoylphenyl]acetamide]
93%	3440 nM	CN(C(=O)Cc1ccccc1Cl)c1ccc(-n2cc(C(F)(F)F)cn2)c(S(N)(=O)=O)c1 [Example 240, 2-(2-Chlorophenyl)-N-methyl-N-{3-sulfamoyl-4-[4-(trifluoromethyl)-1H-pyrazol-1-yl]phenyl}acetamide]
83%	259 nM	NS(=O)(=O)c1cc(NC(=O)Cc2ccccc2Cl)ccc1-n1cccc(Cl)c1=O [Example 4, N-[4-(3-Chloro-2-oxopyridin-1(2H)-yl)-3-sulfamoylphenyl]-2-(2-chlorophenyl)-acetamide]
92%	597 nM	Cc1coc(-c2ccc(NC(=O)Cc3ccccc3Cl)cc2S(N)(=O)=O)n1 [Example 432, 2-(2-Chlorophenyl)-N-[4-(4-methyl-1,3-oxazol-2-yl)-3-sulfamoylphenyl]acetamide]
63%	40 nM	NS(=O)(=O)c1cc(NC(=O)Cc2ccccc2F)ccc1-c1cncc(C(F)(F)F)c1 [Example 221, 2-(2-Fluorophenyl)-N-{3-sulfamoyl-4-[5-(trifluoromethyl)pyridin-3-yl]phenyl}-acetamide]
88%	51 nM	Cc1cc(-c2ccc(NC(=O)Cc3ccccc3Cl)cc2S(N)(=O)=O)n(C)n1 [Example 351, 2-(2-Chlorophenyl)-N-[4-(1,3-dimethyl-1H-pyrazol-5-yl)-3-sulfamoylphenyl]acetamide]
76%	224 nM	NS(=O)(=O)c1cc(NC(=O)Cc2ccccc2C(F)(F)F)ccc1-n1cc(C(F)(F)F)cn1 [Example 22, N-{3-Sulfamoyl-4-[4-(trifluoromethyl)-1H-pyrazol-1-yl]phenyl}-2-[2-(trifluoromethyl)-phenyl]acetamide]
62%	263 nM	COc1ccccc1CC(=O)Nc1ccc(-n2cc(C(F)(F)F)cn2)c(S(N)(=O)=O)c1 [Example 112, 2-(2-Methoxyphenyl)-N-{3-sulfamoyl-4-[4-(trifluoromethyl)-1H-pyrazol-1-yl]phenyl}-acetamide]
97%	353 nM	NS(=O)(=O)c1cc(NC(=O)Cc2ccc(O)cc2)ccc1-n1cc(Cl)cn1 [Example 86, N-[4-(4-Chloro-1H-pyrazol-1-yl)-3-sulfamoylphenyl]-2-(4-hydroxyphenyl)acetamide]
